Patent EP4711365A1 (Shanghai Hansoh Biomedical Co., Ltd., priority 2023, dated 2024)

What was measured:
[1] = target: T1, human IL-17RA and IL-17A proteins (Homo sapiens, UniProt Q16552); assay: Competitive ELISA: blocking of binding between human IL-17RA and IL-17A; conditions: coated IL-17A, IL-17RA 5 nM
T1 sequence (Q16552 24-155): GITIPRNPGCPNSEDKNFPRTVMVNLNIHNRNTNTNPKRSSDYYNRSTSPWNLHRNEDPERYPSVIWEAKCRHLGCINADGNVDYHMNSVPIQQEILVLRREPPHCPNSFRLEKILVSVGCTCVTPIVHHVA
Experimental: Test example 1 Assay for competitive binding effect between compounds of the present invention and human IL-17 receptor for ligand
1. Experimental objective: to quantitatively determine the blocking effect of the compound on the binding between human IL-17RA and IL-17A proteins using competitive ELISA under in vitro conditions. 2. Experimental instruments and reagents: 2.1 Instruments:
2.2 Reagents: 3. Experimental method: IL-17A at 0.0625 µg/mL was coated in a 96-well plate at 4°C overnight at 100 µL per well. The plate was washed with PBST (300 µL/well x 4), and then blocked at 24°C for 2 h by adding 300 µL of ELISA Blocker blocking buffer to each well. The plate was further washed under the same conditions. 80 µL of PBS solution containing 1% BSA and 10 µL of 10× test compound solution were added to each well and mixed uniformly, and then the mixture was incubated at room temperature for 1 hour. After that, 10 µL of IL-17RA solution was added to a final concentration of 5 nM and mixed uniformly, and then the mixture was incubated at 24°C for 1 h. The corresponding concentration and volume of DMSO solution without compounds was added to positive control wells, and 1% BSA solution without IL-17RA was added to negative control wells.
After the plate was washed four times, 100 µL of the anti-Fc tag HRP-conjugated antibody was added, and the mixture was incubated at 37°C for 1 h. After the plate was washed four times, 100 µL of TMB substrate was added to each well, and the mixture was incubated at 37°C in the dark. After colour development was completed, the reaction was terminated by adding 100 µL of stop solution to each well, and the absorbance was measured at wavelengths of 450 nm and 570 nm using a microplate reader.
• 1) Inhibition rate (%): The original data (OD450-OD570) was calculated according to the following formula to obtain the inhibition rate. Inhibition rate% = [(average value of positive control wells - value of sample wells)/(average value of positive control wells - average value of negative control wells)] × 100, where the positive control wells are wells without compounds, and the negative control wells are wells without IL-17RA protein solution. • 2) Curve fitting: Log(inhibitor) vs. response -- Variable slope (four parameters) in GraphPad Prism 8 was used for fitting equation analysis of the compound concentration and the corresponding inhibition rate, and the curve was fitted to obtain the IC50 value of the compound. The fitting calculation equation was Y = Bottom + (Top - Bottom) / (1 + 10^((LogIC50 - X) * HillSlope)).

[2] = tested on: Groα secretion by HT-29 cells; assay: Inhibition of Groα secretion by HT-29 cells stimulated with IL-17A (ELISA); assay type: cell-based, Human; conditions: Homo sapiens, IL-17A 30 ng/ml, 48 hours, Groα in supernatant
Method in brief: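 HT-29 cells (10,000/well) were cultured overnight, then given compound pre-mixed 30 min with IL-17A (final 30 ng/ml) and incubated 48 hours at 37°C. Groα in supernatant was measured by ELISA at 450 nm; inhibition relative to IL-17A-stimulated control, IC50 from four-parameter fit.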

[3] = Pharmacokinetic assay in Wistar rats, oral; conditions: rat, plasma, 30 mg/kg
Experimental: Experimental objective: to study the pharmacokinetic behaviours of the compounds of the present invention in the body (plasma) of Wistar rats as test animals after oral administration at a dose of 30 mg/kg. • 2. Experimental scheme • 2.1 Test drugs: the examples of the present invention, prepared in house. • 2.2 Test animals: Wistar rats (female, 3 rats per group), from Beijing Vital River Laboratory Animal Technology Co., Ltd., with the animal production license no.
Solutol HS15 was melted in a water bath at 50-60°C, and then 50 mL of the melted Solutol HS15 was added to 450 mL of ultrapure water. The mixture was stirred and sonicated to obtain 500 mL of 10% Solutol HS15 solution. The compound was weighed, and according to the total administration volume, 30% PEG solution was first added. The mixture was shaken uniformly and sonicated until a clear solution was obtained. Subsequently, 70% (10% Solutol) in water was added, resulting in a colourless and clear solution with a concentration of 3.0 mg/mL.
2.4 Administration scheme: After overnight fasting, 3 female Wistar rats per group were administered orally (PO) at a dose of 30 mg/kg with an administration volume of 10 mL/kg.
• 1) To 50 uL of plasma sample was added 250 uL of acetonitrile for precipitation, and the mixture was mixed and then centrifuged at 4°C at 4000 rpm for 20 minutes. • 2) The treated supernatant solution was taken and subjected to LC/MS/MS to analyse the concentration of the test compounds. LC/MS/MS analysis instrument: AB Sciex API-4000 Qtrap-Shimadzu Controller-CBM20A.
• Chromatographic column: Waters Xbridge C18 3.5 um 2.1*50 mm • Mobile phase: solution A: 0.1% formic acid in water, and solution B: 0.1% formic acid in acetonitrile • Flow rate: 0.6 mL/min • Elution time: 0-3.5 minutes, with eluents as follows:

C[C@H]1CC[C@H]([C@H](NC(=O)C2(F)CC2)C(=O)Nc2ncc([C@@H](CN3CCO[C@@H](CF)C3)N3CC(F)(F)CNC3=O)s2)CC1 [Example 703]
IC50 [1]: 7.5 nM | IC50 [2]: 7 nM

C[C@@H]1CN(C[C@H](c2cnc(NC(=O)[C@@H](NC(=O)C3(F)CC3)[C@H]3CC[C@H](C)CC3)s2)N2CC(F)(F)CNC2=O)[C@H](C)CO1 [Example 736, N-((S)-2-((5-((R)-1-(5,5-difluoro-2-oxotetrahydropyrimidin-1(2H)-yl)-2-((2R,5R)-2,5-dimethylmorpholino)ethyl)thiazol-2-yl)amino)-1-((1r,4S)-4-methylcyclohexyl)-2-oxoethyl)-1-fluorocyclopropane-1-carboxamide]
IC50 [1]: 3.6 nM | IC50 [2]: 1 nM | AUC(0-t) [3]: 10800 ng·h/mL | Cmax [3]: 1310 ng/mL | Tmax [3]: 2 h | half-life [3]: 2.4 h

C[C@H]1CC[C@H]([C@H](NC(=O)C2(F)CC2)C(=O)Nc2ncc([C@@H](CN3CCC(F)CC3)N3CC(F)(F)CNC3=O)s2)CC1 [Example 760]
IC50 [1]: 7 nM | IC50 [2]: 5.7 nM

CCc1nonc1C(=O)N[C@H](C(=O)Nc1ncc([C@@H](C2CCOCC2)n2cc(Cl)ccc2=O)s1)[C@H]1CC[C@H](C)CC1 [Example 532]
IC50 [1]: 7.9 nM | IC50 [2]: 7.9 nM

C[C@H]1CC[C@H]([C@H](NC(=O)OC2CC2)C(=O)Nc2ncc([C@@H](CC3CC3)N3CC(F)(F)CNC3=O)s2)CC1 [Example 524]
IC50 [1]: 3.6 nM | IC50 [2]: 9.3 nM

C[C@H]1CN(C[C@H](c2cnc(NC(=O)[C@@H](NC(=O)C3(F)CC3)[C@H]3CC[C@H](C)CC3)s2)N2CC(F)(F)CNC2=O)CCO1 [Example 1013]
IC50 [1]: 9 nM | IC50 [2]: 9 nM

CC1CCC(C(NC(=O)C2(F)CC2)C(=O)Nc2ncc(C(CN3C(C)COCC3C)N3CC(F)(F)CNC3=O)s2)CC1 (centres unmarked) [Example 739]
IC50 [1]: 5 nM | IC50 [2]: 3 nM | AUC(0-t) [3]: 10300 ng·h/mL | Cmax [3]: 1940 ng/mL | Tmax [3]: 2 h | half-life [3]: 2.5 h

COC1CCN(C[C@H](c2cnc(NC(=O)[C@@H](NC(=O)C3(F)CC3)[C@H]3CC[C@H](C)CC3)s2)N2CC(F)(F)CNC2=O)CC1 [Example 777]
IC50 [1]: 8 nM | IC50 [2]: 5.3 nM

C[C@H]1CN(C[C@H](c2cnc(NC(=O)[C@@H](NC(=O)C3(F)CC3)[C@H]3CC[C@H](C)CC3)s2)N2CC(F)(F)CNC2=O)[C@@H](C)CO1 [Example 734]
IC50 [1]: 2.9 nM | IC50 [2]: 2 nM

C[C@H]1CC[C@H]([C@H](NC(=O)C2(F)CC2)C(=O)Nc2ncc([C@@H](CN3CCC(F)(F)CC3)N3CC(F)(F)CNC3=O)s2)CC1 [Example 763, N-((S)-2-((5-((R)-1-(5,5-difluoro-2-oxotetrahydropyrimidin-1(2H)-yl)-2-(4,4-difluoropiperidin-1-yl)ethyl)thiazol-2-yl)amino)-1-((1r,4S)-4-methylcyclohexyl)-2-oxoethyl)-1-fluorocyclopropane-1-carboxamide]
IC50 [1]: 6 nM | IC50 [2]: 4.5 nM | AUC(0-t) [3]: 15900 ng·h/mL | Cmax [3]: 1480 ng/mL | Tmax [3]: 4 h | half-life [3]: 3.4 h

C[C@H]1COCCN1C[C@H](c1cnc(NC(=O)[C@@H](NC(=O)C2(F)CC2)[C@H]2CC[C@H](C)CC2)s1)N1CC(F)(F)CNC1=O [Example 1014, N-((S)-2-((5-((R)-1-(5,5-difluoro-2-oxotetrahydropyrimidin-1(2H)-yl)-2-((S)-3-methylmorpholino)ethyl)thiazol-2-yl)amino)-1-((1r,4S)-4-methylcyclohexyl)-2-oxoethyl)-1-fluorocyclopropane-1-carboxamide]
IC50 [1]: 7 nM | IC50 [2]: 8 nM | AUC(0-t) [3]: 12800 ng·h/mL | Cmax [3]: 1670 ng/mL | Tmax [3]: 4 h | half-life [3]: 2.4 h

[2H]C([2H])([2H])O[C@H]1CCN(C[C@H](c2cnc(NC(=O)[C@@H](NC(=O)C3(F)CC3)[C@H]3CC[C@H](C)CC3)s2)N2CC(F)(F)CNC2=O)C[C@H]1F [Example 782]
IC50 [1]: 4 nM | IC50 [2]: 4 nM

C[C@@H]1CN(C[C@H](c2cnc(NC(=O)[C@@H](NC(=O)C(F)(F)C3CC3)[C@H]3CC[C@H](C)CC3)s2)N2CC(F)(F)CNC2=O)C[C@H](C)O1 [Example 725]
IC50 [1]: 5.6 nM | IC50 [2]: 2.5 nM

[2H]C([2H])([2H])OC1(C)CCN(C[C@H](c2cnc(NC(=O)[C@@H](NC(=O)C3(F)CC3)[C@H]3CC[C@H](C)CC3)s2)N2CC(F)(F)CNC2=O)CC1 [Example 787]
IC50 [1]: 9 nM | IC50 [2]: 8.9 nM | AUC(0-t) [3]: 18800 ng·h/mL | Cmax [3]: 2330 ng/mL | Tmax [3]: 2 h | half-life [3]: 2.4 h

C[C@@H]1CN(C[C@H](c2cnc(NC(=O)[C@@H](NC(=O)C3(F)CC3)[C@H]3CC[C@H](C)CC3)s2)N2CC(F)(F)CNC2=O)C[C@H](C)O1 [Example 724]
IC50 [1]: 6 nM | IC50 [2]: 4 nM

C[C@H]1CC[C@H]([C@H](NC(=O)C2(F)CC2)C(=O)Nc2ncc([C@@H](CN3CCO[C@H](CF)C3)N3CC(F)(F)CNC3=O)s2)CC1 [Example 696, N-((S)-2-((5-((R)-1-(5,5-difluoro-2-oxotetrahydropyrimidin-1(2H)-yl)-2-((S)-2-(fluoromethyl)morpholino)ethyl)thiazol-2-yl)amino)-1-((1r,4S)-4-methylcyclohexyl)-2-oxoethyl)-1-fluorocyclopropane-1-carboxamide]
IC50 [1]: 5 nM | IC50 [2]: 2 nM

C[C@@H]1CN(C[C@H](c2cnc(NC(=O)[C@@H](NC(=O)C3(F)CC3)[C@H]3CC[C@H](C)CC3)s2)N2CC(F)(F)CNC2=O)CCO1 [Example 1012, N-((S)-2-((5-((R)-1-(5,5-difluoro-2-oxotetrahydropyrimidin-1(2H)-yl)-2-((R)-2-methylmorpholino)ethyl)thiazol-2-yl)amino)-1-((1r,4S)-4-methylcyclohexyl)-2-oxoethyl)-1-fluorocyclopropane-1-carboxamide]
IC50 [1]: 6 nM | IC50 [2]: 3 nM | AUC(0-t) [3]: 14200 ng·h/mL | Cmax [3]: 2220 ng/mL | Tmax [3]: 2 h | half-life [3]: 2.3 h

C[C@@H]1CN(C[C@H](c2cnc(NC(=O)[C@@H](NC(=O)C3(F)CC3)[C@H]3CC[C@H](C)CC3)s2)N2CC(F)(F)CNC2=O)[C@@H](C)CO1 [Example 731]
IC50 [1]: 6.6 nM | IC50 [2]: 6 nM | AUC(0-t) [3]: 14300 ng·h/mL | Cmax [3]: 1840 ng/mL | Tmax [3]: 2 h | half-life [3]: 2.3 h

C[C@@H]1CN(C[C@H](c2cnc(NC(=O)[C@@H](NC(=O)C3(F)CC3)[C@H]3CC[C@H](C)CC3)s2)N2CC(F)(F)CNC2=O)C[C@@H](C)O1 [Example 726]
IC50 [1]: 4.8 nM | IC50 [2]: 1.8 nM

CC1CCC([C@H](NC(=O)C2(F)CC2)C(=O)Nc2ncc(C(CN3CCOCC3)N3CC(F)(F)CNC3=O)s2)CC1 (some centres unmarked) [Example 601]
IC50 [1]: 4.1 nM | IC50 [2]: 7.5 nM

C[C@@H]1COCCN1C[C@H](c1cnc(NC(=O)[C@@H](NC(=O)C2(F)CC2)[C@H]2CC[C@H](C)CC2)s1)N1CC(F)(F)CNC1=O [Example 1015]
IC50 [1]: 4 nM | IC50 [2]: 6 nM

CC1(C)CN(C[C@H](c2cnc(NC(=O)[C@@H](NC(=O)C3(F)CC3)[C@H]3CC[C@H](C)CC3)s2)N2CC(F)(F)CNC2=O)CCO1 [Example 718]
IC50 [1]: 5 nM | IC50 [2]: 8 nM

[2H]C([2H])([2H])O[C@@H]1CCN(C[C@H](c2cnc(NC(=O)[C@@H](NC(=O)C3(F)CC3)[C@H]3CC[C@H](C)CC3)s2)N2CC(F)(F)CNC2=O)C[C@@H]1F [Example 781]
IC50 [1]: 5 nM | IC50 [2]: 10 nM

CCc1nonc1C(=O)NC(C(=O)Nc1ncc(C(COC)N2CC(C(F)(F)F)NC2=O)s1)C1CCC(C)CC1 (centres unmarked) [Example 521]
IC50 [1]: 1.3 nM | IC50 [2]: 2 nM

C[C@H]1CC[C@H]([C@H](NC(=O)C(F)(F)C2CC2)C(=O)Nc2ncc([C@@H](CN3CCO[C@H](CF)C3)N3CC(F)(F)CNC3=O)s2)CC1 [Example 700]
IC50 [1]: 3.4 nM | IC50 [2]: 2.6 nM

C[C@@H]1CN(C[C@H](c2cnc(NC(=O)[C@@H](NC(=O)C(F)(F)C3CC3)[C@H]3CC[C@H](C)CC3)s2)N2CC(F)(F)CNC2=O)C[C@@H](C)O1 [Example 727]
IC50 [1]: 3.3 nM | IC50 [2]: 1.2 nM
